# Laboratory results from US6329531A, “Optical diagnostic agents for diagnosis of neurodegenerative diseases by means of near infrared radiation (NIR radiation)” (Schering AG, priority 1996, dated 2001).
# Counter-ions that a name gives are not always drawn.
# Experiment: Absorption and fluorescence maxima of the dye in water
# Type: physicochemical
# Settings: H2O
λMax.absorption (H2 O) [nm],λMax.fluorescence (H2 O) [nm],Compound
745,779,"CC1(C)C(=CC=CC=CC=CC2=[N+](CCCCS(=O)(=O)[O-])c3ccc(C(=O)N[C@H]4C(O)O[C@H](CO)[C@@H](O)[C@@H]4OS(=O)(=O)O)cc3C2(C)C)N(CCCCS(=O)(=O)O)c2ccccc21 (stereo partly drawn) [Example 2, Bis-1,1'-(4-Sulfobutyl)indotricarbocyanine-5-carboxylic acid-α-D-glucosamide-3""-sulfate, disodium salt]"
748,779,CC1(C)C(=CC=CC=CC=CC2=[N+](CCCCS(=O)(=O)[O-])c3ccc(C(=O)NC4OC(CO)C(OC5OC(CO)C(OC6OC(CO)C(O)C(O)C6O)C(O)C5O)C(O)C4O)cc3C2(C)C)N(CCCCS(=O)(=O)O)c2ccccc21 (stereo not shown) [Example 5]
754,790,"CC1(C)C(=CC=CC=CC=CC2=[N+](CCCCS(=O)(=O)[O-])c3ccc(C(=O)N[C@H]4C(O)O[C@H](CO)[C@@H](O)[C@@H]4OS(=O)(=O)O)cc3C2(C)C)N(CCCCS(=O)(=O)O)c2ccc(C(=O)N[C@H]3C(O)O[C@H](CO)[C@@H](O)[C@@H]3OS(=O)(=O)O)cc21 (stereo partly drawn) [Example 3, Bis-1,1'-(4-Sulfobutyl)indotricarbocyanine-5,5'-dicarboxylic acid-di-α-D-glucosamide-di-3""-sulfate, trisodium salt]"
746,779,"CC1(C)C(=CC=CC=CC=CC2=[N+](CCCCS(=O)(=O)[O-])c3ccc(C(=O)N[C@H]4C(O)O[C@H](CO)[C@H](O)[C@@H]4O[C@@H]4O[C@H](C(=O)O)[C@@H](O)[C@H](O)[C@H]4O)cc3C2(C)C)N(CCCCS(=O)(=O)[O-])c2ccccc21.[Na+] (stereo partly shown) [Example 4, N-Chondrosin-bis-1,1'-(4-sulfobutyl)indotricarbocyanine-5-carboxylic acid amide, sodium salt]"
746,780,"CC1(C)C(=CC=CC=CC=CC2=[N+](CCCCS(=O)(=O)[O-])c3ccc(C(=O)NCC(COS(=O)(=O)O)OS(=O)(=O)O)cc3C2(C)C)N(CCCCS(=O)(=O)O)c2ccccc21 (stereo not shown) [Example 1, N-(2,3-disulfato)propyl-1,1'-bis-(4-sulfobutyl)indotricarbocyanine-5-carboxylic acid amide, trisodium salt]"
